Legend:
Hedgehog pathway = experiment: C3H10T1/2 osteoblast differentiation assay (alkaline phosphatase readout, Shh-induced); assay type: cell-based; conditions: Mus musculus, C3H 10T1/2; C3H10T1/2 cells, sonic Hedgehog 250 ng/ml, AP activity normalized to total protein; approximate EC50 for inhibition
From the text: Hedgehog pathway specific cancer cell killing effects may be ascertained using the following assay. C3H10T1/2 cells differentiate into osteoblasts when contacted with the sonic hedgehog peptide (Shh-N). Upon differentiation, these osteoblasts produce high levels of alkaline phosphatase (AP) which can be measured in an enzymatic assay (Nakamura, et al., BBRC (1997) 237:465). Compounds that block the differentiation of C3H10T1/2 into osteoblasts (a Shh dependent event) can therefore be identified by a reduction in AP production (van der Horst, et al., Bone (2003) 33:899). The assay details are described below. The results approximate (EC50 for inhibition) of the differentiation assay is shown below in Table 1.
Mouse embryonic mesoderm fibroblasts C3H10T1/2 cells (obtained from ATCC) were cultured in Basal MEM Media (Gibco/Invitrogen) supplemented with 10% heat inactivated FBS (Hyclone), 50 units/ml penicillin and 50 ug/ml streptomycin (Gibco/Invitrogen) at 37° C. with 5% CO2 in air atmosphere.
Alkaline Phosphatase Assay C3H10T1/2 cells were plated in 96 wells with a density of 8×10^3 cells/well. Cells were grown to confluence (72 hrs). After sonic Hedgehog (250 ng/ml), and/or compound treatment, the cells were lysed in 110 μL of lysis buffer (50 mM Tris pH 7.4, 0.1% TritonX100), plates were sonicated and lysates spun through 0.2 μm PVDF plates (Corning). 40 μL of lysates was assayed for AP activity in alkaline buffer solution (Sigma) containing 1 mg/ml p-Nitrophenyl Phosphate. After incubating for 30 min at 37° C., the plates were read on an Envision plate reader at 405 nm. Total protein was quantified with a BCA protein assay kit from Pierce according to manufacturer's instructions. AP activity was normalized against total protein.

human Gli-1 mRNA = experiment: Gli-1 mRNA analysis of PANC-1 tumor tissue, human Gli-1; assay type: in vivo; conditions: RNA isolated 24 hours after final dose
Method: (§1) The activity of Compound 10 was also tested in another model of pancreatic cancer in which the PANC-1 pancreatic cancer cells were implanted into the orthotopic site, that is, directly into the pancreas. At the end of 5 weeks of dosing, 40 mg/kg/day (a total of 35 doses), tumor growth was monitored by weighing the tumors as they were removed from the animals. There was a statistically significant (p=0.00014) difference between the Compound 10 and vehicle treated animals which was seen as a 47% decrease in tumor weight in the Compound 10 treated animals. In addition, tumor tissue was harvested and RNA was isolated 24 hours after the final dose of Compound 10.

BxPC-3 cells = experiment: BxPC-3 human pancreatic subcutaneous tumor model, tumor volume; assay type: in vivo, mice; conditions: BxPC-3 subcutaneous, orally 40 mg/kg/day, 25 daily doses, p=0.0437
Method: (§2) The activity of Compound 10 was further tested in a human pancreatic model: BxPC-3 cells were implanted subcutaneously into the flanks of the right legs of mice. On day 42 post-tumor implant, the mice were randomized into two groups to receive either Vehicle (30% HPBCD) or Compound 10. Compound 10 was administered orally at 40 mg/kg/day. […] At the end of the study, the tumors were harvested 4 hours post the last dose to evaluate an on target response by q-RT-PCR analysis of the HH pathway genes.

murine Gli-1 = experiment: Gli-1 mRNA analysis of PANC-1 tumor tissue, murine Gli-1; assay type: in vivo; conditions: RNA isolated 24 hours after final dose
Method: as §1

[1] = test system: PANC-1 pancreatic cancer cells; experiment: PANC-1 orthotopic pancreatic cancer model, tumor weight; assay type: in vivo; conditions: 40 mg/kg/day, 5 weeks (35 doses), p=0.00014
Method: as §1

medulloblastoma = experiment: Ptch1/Hic1 medulloblastoma subcutaneous allograft model, tumor growth; assay type: in vivo, mouse
Method: (§3) The activity of Compound 10 was evaluated in a transgenic mouse model of medulloblastoma. Mice that are heterozygous for loss of function mutations in the tumor suppressors Patched1 (Ptch1) and Hypermethylated in Cancer (Hic1) develop spontaneous medulloblastoma. […] When passaged as subcutaneous allografts, these tumors grow aggressively and are Hedgehog pathway-dependent. This model was employed to evaluate the efficacy of orally administered Compound, and to correlate activity with drug exposure in plasma and tumors.
The approximate effective daily oral dose for 50% inhibition of tumor growth (ED50) is […] 8 mg/kg.

murine Gli-1 mRNA = experiment: q-RT-PCR of HH pathway genes in harvested BxPC-3 tumors, murine Gli-1; assay type: in vivo; conditions: BxPC-3 tumors harvested 4 hours post last dose, 40 mg/kg/day oral
Method: as §2

human Gli-1 = experiment: q-RT-PCR of HH pathway genes in harvested BxPC-3 tumors, human Gli-1; assay type: in vivo; conditions: BxPC-3 tumors harvested 4 hours post last dose, 40 mg/kg/day oral
Method: as §2

Gli-1 mRNA = experiment: Ptch1/Hic1 medulloblastoma subcutaneous allograft model, Gli-1 mRNA expression; assay type: in vivo, mouse; conditions: single oral (PO) dose, subcutaneously implanted tumors, 8 hours post dose
Method: as §3

SMILES	EC50 (Hedgehog pathway)	also measured
CC1=C2C[C@H]3[C@@H](CC[C@@H]4Cc5nocc5C[C@@]43C)[C@@H]2CC[C@@]2(C1)O[C@@H]1C[C@H](C)CN[C@H]1[C@H]2C [Compound 1]	20 to 100 nM	–
CC1=C2C[C@H]3[C@@H](CC[C@@H]4Cc5n[nH]cc5C[C@@]43C)[C@@H]2CC[C@@]2(C1)O[C@@H]1C[C@H](C)CN[C@H]1[C@H]2C [Compound 10]	< 20 nM	human Gli-1 mRNA modulation (human Gli-1 mRNA): no modulation; reduction of tumor volume growth compared to vehicle control (BxPC-3 cells): 37%; murine Gli-1 modulation (murine Gli-1): did reveal modulation; decrease in tumor weight vs vehicle [1]: 47%; ED50 (medulloblastoma; Mus musculus, daily oral dosing, read-out: approximate effective daily oral dose for 50% inhibition of tumor growth (ED50)): ~8 mg/kg; tumor growth effect (medulloblastoma; daily (QD) PO administration): dose dependent inhibition of tumor growth, with frank tumor regression seen at higher doses; long term survival following cessation of treatment (medulloblastoma; treated QD for 21 days): > 19 days; tumor re-growth after cessation of treatment (medulloblastoma; treated QD for 21 days): little to no tumor re-growth; murine Gli-1 mRNA levels vs vehicle (murine Gli-1 mRNA): robust down-regulation; human Gli-1 modulation (q-RT-PCR) (human Gli-1): no modulation; HH pathway regulation measured by Gli-1 mRNA expression (Gli-1 mRNA): dose-dependent down-regulation
CC1=C2C[C@H]3[C@@H](CC[C@@H]4Cc5nn(C)cc5C[C@@]43C)[C@@H]2CC[C@@]2(C1)O[C@@H]1C[C@H](C)CN[C@H]1[C@H]2C [Compound 11]	20 to 100 nM	–
CC1=C2C[C@H]3[C@@H](CC[C@@H]4Cc5nn(S(C)(=O)=O)cc5C[C@@]43C)[C@@H]2CC[C@@]2(C1)O[C@@H]1C[C@H](C)CN[C@H]1[C@H]2C [Compound 12]	> 100 nM	–
CC1=C2C[C@H]3[C@@H](CC[C@@H]4Cc5n[nH]cc5C[C@@]43C)[C@@H]2CC[C@@]2(C1)O[C@@H]1C[C@H](C)CN(C)[C@H]1[C@H]2C [Compound 13]	20 to 100 nM	–
CC(=O)N1C[C@@H](C)C[C@H]2O[C@]3(CC[C@@H]4C(=C(C)C3)C[C@H]3[C@H]4CC[C@@H]4Cc5n[nH]cc5C[C@@]43C)[C@H](C)[C@@H]21 [Compound 14]	20 to 100 nM	–
CC1=C2C[C@H]3[C@@H](CC[C@@H]4Cc5n[nH]c(C(F)(F)F)c5C[C@@]43C)[C@@H]2CC[C@@]2(C1)O[C@@H]1C[C@H](C)CN[C@H]1[C@H]2C [Compound 15]	> 100 nM	–
C[C@@H]1CN[C@H]2[C@@H](C)[C@@]3(CC[C@@H]4C(C[C@H]5[C@H]4CC[C@@H]4Cc6[nH]ncc6C[C@@]45C)C3)O[C@@H]2C1 (stereo partly shown) [Compound 17]	20 to 100 nM	–
CC1=C2C[C@H]3[C@@H](CC[C@@H]4Cc5[nH]ncc5C[C@@]43C)[C@@H]2CC[C@]12O[C@@H]1C[C@H](C)CN[C@H]1[C@H]2C [Compound 19]	> 100 nM	–
CC1=C2C[C@H]3[C@@H](CC[C@@H]4Cc5n[nH]cc5C[C@@]43C)[C@@H]2CC[C@@]2(C1)O[C@@H]1C[C@H](C)CN(O)[C@H]1[C@H]2C [Compound 31]	20 to 100 nM	–
CC1=C2C[C@H]3[C@@H](CC[C@@H]4Cc5[nH][nH]c(=O)c5C[C@@]43C)[C@@H]2CC[C@@]2(C1)O[C@@H]1C[C@H](C)CN[C@H]1[C@H]2C [Compound 32]	> 100 nM	–
CC1=C2C[C@H]3[C@@H](CC[C@@H]4Cc5[nH]ncc5C[C@@]43C)[C@@H]2CC[C@@]2(C1)O[C@@H]1C[C@H](C)CN(S(C)(=O)=O)[C@H]1[C@H]2C [Compound 40]	20 to 100 nM	–
CC1=C2C[C@H]3[C@@H](CC[C@@H]4Cc5nn(S(C)(=O)=O)cc5C[C@@]43C)[C@@H]2CC[C@@]2(C1)O[C@@H]1C[C@H](C)CN(S(C)(=O)=O)[C@H]1[C@H]2C [Compound 41]	> 100 nM	–
CC1=C2C[C@H]3[C@@H](CC[C@@H]4Cc5nc(C)sc5C[C@@]43C)[C@@H]2CC[C@@]2(C1)O[C@@H]1C[C@H](C)CN[C@H]1[C@H]2C [Compound 42]	> 100 nM	–
CC1=C2C[C@H]3[C@@H](CC[C@@H]4Cc5nn(S(=O)(=O)c6ccc(C)cc6)cc5C[C@@]43C)[C@@H]2CC[C@@]2(C1)O[C@@H]1C[C@H](C)CN[C@H]1[C@H]2C [Compound 43]	> 100 nM	–
CC1=C2C[C@H]3[C@@H](CC[C@@H]4Cc5[nH]ncc5C[C@@]43C)[C@@H]2CC[C@@]2(C1)O[C@@H]1C[C@H](C)CN(S(N)(=O)=O)[C@H]1[C@H]2C [Compound 44]	20 to 100 nM	–
CC1=C2C[C@H]3[C@@H](CC[C@H]4Cc5[nH]ncc5C[C@@]43C)[C@@H]2CC[C@@]2(C1)O[C@@H]1C[C@H](C)CN[C@H]1[C@H]2C [Compound 45]	> 100 nM	–

Reference: patent publication US8426436B2, “Heterocyclic cyclopamine analogs and methods of use thereof” (Infinity Discovery, Inc., priority 2007, dated 2013)
